These results are taken from ChEMBL document CHEMBL5537161, “Structure-Guided Design, Synthesis, and Antivirulence Assessment of Covalent Staphylococcus aureus Sortase A Inhibitors” (J Med Chem, 2024).

Each structure is given as a SMILES string. Converted amounts (≈) assume the structure as drawn. A value given as a limit tells only on which side of the number the result lay.

The IC50 is the point on the concentration scale where inhibition reaches its midpoint. A high value points to a need for much substance. In general, MIC refers to the smallest concentration in the dilution series that meets the test's criterion for growth inhibition.

Assay [1] concerns the target T1, Sortase A (Staphylococcus aureus, UniProt Q9S446, N24DEL). The assay is described as follows: Inhibition of Staphylococcus aureus sortase A N24 deletion mutant using Abz-LPATG-Dnp as substrate preincubated for 20 mins followed by substrate addition by FRET assay.
The subject of the next assay is Staphylococcus aureus. The assay is described as follows: Bactericidal activity against Staphylococcus aureus Newman assessed as reduction in bacterial growth incubated for 16 to 18 hrs. The format is functional. The conditions noted are these: time 16-18 hrs.
The target of assay [2] is T1, Sortase A. The assay is described as follows: Inhibition of Staphylococcus aureus Sortase A N24 deletion mutant transpeptidation using IsdA64-323 as substrate preincubated for 20 mins followed by substrate addition and measured after 1.5 hrs by SDS-PAGE analysis.

With `Cc1ccc(COc2ccc(/C=C/C=C3C(=O)NC(=O)NC3=O)cc2)cc1`, 1.1 µM corresponded to half-maximal inhibition on Sortase A [1] (IC50). In the assay with Staphylococcus aureus, the MIC was greater than 128 µg/mL.
Consider `O=C1NC(=O)C(=C/C=C/c2ccc(F)cc2)C(=O)N1`, for which the figures for the IC50 against Sortase A [1] and against Sortase A [2] were 1.3 µM and 7.4 µM, respectively. In addition, the MIC with Staphylococcus aureus is greater than 128 µg/mL.
`O=C1NC(=O)C(=C/C=C/c2ccc(OCc3ccncc3)cc2)C(=O)N1` gave an IC50 on Sortase A [1] greater than 50 µM. In addition, the MIC in the assay on Staphylococcus aureus is greater than 128 µg/mL.
The corresponding values for `CC(C)C[C@H](NC(=O)OCc1ccccc1)C(=O)Oc1ccc(/C=C/C=C2C(=O)NC(=O)NC2=O)cc1` are 5.6 µM and 64 µg/mL (≈ 127 µM).
Regarding `O=C1NC(=O)C(=C/C=C/c2ccc(OCC(=O)c3ccco3)cc2)C(=O)N1`, the IC50 against Sortase A [1] came out at 0.8 µM; against Sortase A [2], 24.6 µM. Also, the MIC in the assay with Staphylococcus aureus was greater than 128 µg/mL.
`O=C1NC(=O)C(=C/C=C/c2ccc(OCc3ccsc3)cc2)C(=O)N1` came in with an IC50 against Sortase A [1] of 0.7 µM. Moreover, the MIC with Staphylococcus aureus is greater than 128 µg/mL.
As for `O=C1NC(=O)C(=C/C=C/c2ccc(OCc3ccc([N+](=O)[O-])cc3)cc2)C(=O)N1`, 1.3 µM corresponded to half-maximal inhibition at Sortase A [1] (IC50). Moreover, the minimum inhibitory concentration (MIC) in the assay with Staphylococcus aureus is greater than 128 µg/mL.
In turn, `CC(C)(C)c1ccc(COc2ccc(/C=C/C=C3C(=O)NC(=O)NC3=O)cc2)cc1` yielded an IC50 against Sortase A [1] greater than 50 µM. In addition, the MIC in the assay on Staphylococcus aureus came out at 128 µg/mL (≈ 316 µM).
The molecule `CC(C)CC=C1C(=O)NC(=O)NC1=O` had an IC50 against Sortase A [1] greater than 50 µM. Further, in the assay on Staphylococcus aureus, the MIC is greater than 128 µg/mL.
Taken in the same sequence, the figures for `CC(C)CCC(=O)Oc1ccc(/C=C/C=C2C(=O)NC(=O)NC2=O)cc1` were 1.5 µM and 128 µg/mL (≈ 359 µM).
Regarding `O=C1NC(=O)C(=C/C=C/c2ccco2)C(=O)N1`, the IC50 against Sortase A [1] is 1.4 µM. Moreover, the MIC with Staphylococcus aureus was greater than 128 µg/mL.
The corresponding values for `COc1ncc(/C=C/C=C2C(=O)NC(=O)NC2=O)cn1` are 7.7 µM and greater than 128 µg/mL.
For the molecule `N#Cc1ccc(COc2ccc(/C=C/C=C3C(=O)NC(=O)NC3=O)cc2)cc1`, the IC50 against Sortase A [1] was determined as 0.7 µM. The MIC with Staphylococcus aureus is greater than 128 µg/mL.
The corresponding values for `O=C1NC(=O)C(=C/C=C/c2cc(Cl)cc(Cl)c2)C(=O)N1` are 2 µM and 64 µg/mL (≈ 206 µM).
The corresponding values for `COc1ccc(C=C2C(=O)NC(=O)NC2=O)cc1` are greater than 50 µM and greater than 128 µg/mL.
The corresponding values for `O=C1NC(=O)C(=C/C=C/c2ccc(OCc3cccnc3)cc2)C(=O)N1` are greater than 50 µM and greater than 128 µg/mL.
`O=C1NC(=O)C(=C/C=C/c2ccccc2Cl)C(=O)N1` came in with an IC50 against Sortase A [1] of 2.1 µM. Further, the MIC in the assay on Staphylococcus aureus is 128 µg/mL (≈ 463 µM).
Taken in the same sequence, the figures for `NC(=O)COc1ccc(/C=C/C=C2C(=O)NC(=O)NC2=O)cc1` were 0.9 µM and greater than 128 µg/mL.
The corresponding values for `COC(=O)c1ccc(COc2ccc(/C=C/C=C3C(=O)NC(=O)NC3=O)cc2)cc1` are greater than 50 µM and greater than 128 µg/mL.
The corresponding values for `CN(C)c1ccc(/C=C/C=C2C(=O)NC(=O)NC2=O)cc1` are greater than 50 µM and greater than 128 µg/mL.
On to `O=C1NC(=O)C(=C/C=C/c2ccc(OCc3ccc(C(F)(F)F)cc3)cc2)C(=O)N1`, for which, at Sortase A [1], the IC50 is 6.5 µM. Besides, in the assay with Staphylococcus aureus, the MIC was greater than 128 µg/mL.
The corresponding values for `O=C1NC(=O)C(=C/C=C/c2ccc(Cl)cc2)C(=O)N1` are 1 µM and 128 µg/mL (≈ 463 µM).
`O=C1NC(=O)C(=C/C=C/c2ccc(Br)cc2)C(=O)N1`: the figures for the IC50 against Sortase A [1] and against Sortase A [2] were 0.7 µM and 9 µM, respectively. In addition, the MIC in the assay with Staphylococcus aureus was determined as 64 µg/mL (≈ 199 µM).
Regarding `O=C1NC(=O)C(=C/C=C/c2ccc(OCC(=O)c3ccc[nH]3)cc2)C(=O)N1`, the IC50 on Sortase A [1] was determined as 0.5 µM; against Sortase A [2], 15.3 µM. Moreover, in the assay on Staphylococcus aureus, the MIC is greater than 128 µg/mL.
As to `COC(=O)c1ccc(/C=C/C=C2C(=O)NC(=O)NC2=O)cc1`, it took 2.2 µM to reach half-maximal inhibition at Sortase A [1] (IC50). Further, the MIC in the assay on Staphylococcus aureus is greater than 128 µg/mL.
The molecule `COc1ccc(/C=C/C=C2C(=O)NC(=S)NC2=O)cc1` registered an IC50 against Sortase A [1] of 2.8 µM. Also, the minimum inhibitory concentration (MIC) in the assay with Staphylococcus aureus was greater than 128 µg/mL.
The corresponding values for `O=C1NC(=O)C(=C/C=C/c2ccc(OC(=O)[C@H](CO)NC(=O)OCc3ccccc3)cc2)C(=O)N1` are 2.5 µM and greater than 128 µg/mL.
The corresponding values for `O=C1NC(=O)C(=C/C=C/c2ccc(Cl)c(Cl)c2)C(=O)N1` are 1 µM and 32 µg/mL (≈ 103 µM).
The corresponding values for `O=C1NC(=O)C(=C/C=C/c2ccc([N+](=O)[O-])cc2)C(=O)N1` are 2 µM and 128 µg/mL (≈ 446 µM).
For the molecule `CC(=O)Oc1ccc(COc2ccc(/C=C/C=C3C(=O)NC(=O)NC3=O)cc2)cc1`, the IC50 on Sortase A [1] was determined as 0.8 µM; against Sortase A [2] it was 16.1 µM. In addition, in the assay on Staphylococcus aureus, the MIC is greater than 128 µg/mL.
At Sortase A [1], `O=C1NC(=O)C(=C/C=C/c2ccc(C(F)(F)F)cc2)C(=O)N1` displayed an IC50 of 1.4 µM. Besides, the MIC in the assay on Staphylococcus aureus was 64 µg/mL (≈ 206 µM).
`O=C1NC(=O)C(=CNCc2ccc(Br)cc2)C(=O)N1` came in with an IC50 against Sortase A [1] greater than 50 µM. The MIC with Staphylococcus aureus is greater than 128 µg/mL.
Taken in the same sequence, the figures for `CSCC[C@H](NC(=O)OCc1ccccc1)C(=O)Oc1ccc(/C=C/C=C2C(=O)NC(=O)NC2=O)cc1` were 6.9 µM and 128 µg/mL (≈ 244 µM).
Taken in the same sequence, the figures for `COc1ccc(/C(C#N)=C/C=C2C(=O)NC(=O)NC2=O)cc1` were 4.7 µM and 128 µg/mL (≈ 431 µM).
`O=C1NC(=O)C(=C/C=C/c2cccc(Cl)c2)C(=O)N1` had an IC50 against Sortase A [1] of 1 µM. The MIC in the assay on Staphylococcus aureus was 64 µg/mL (≈ 231 µM).
Taken in the same sequence, the figures for `COc1cccc(/C=C/C=C2C(=O)NC(=O)NC2=O)c1` were 2.1 µM and 128 µg/mL (≈ 470 µM).
Taken in the same sequence, the figures for `O=C1NC(=O)C(=CNc2ccc(Br)cc2)C(=O)N1` were greater than 50 µM and greater than 128 µg/mL.
As to `O=C1NC(=O)C(=C/C=C/c2ccccc2)C(=O)N1`, the IC50 came to 1.1 µM on Sortase A [1] and 8.2 µM at Sortase A [2]. Besides, in the assay on Staphylococcus aureus, the MIC is greater than 128 µg/mL.
As to `COc1ccc(/C=C/C=C2C(=O)NC(=O)NC2=O)cn1`, the IC50 at Sortase A [1] is 2.3 µM. Further, the MIC in the assay with Staphylococcus aureus is greater than 128 µg/mL.
Molecule `O=C1NC(=O)C(=C/C=C/c2ccc(OC(=O)CNC(=O)OCc3ccccc3)cc2)C(=O)N1` returned an IC50 against Sortase A [1] of 1.8 µM. In addition, the MIC in the assay with Staphylococcus aureus was greater than 128 µg/mL.
With `CC(=O)Oc1ccc(/C=C/C=C2C(=O)NC(=O)NC2=O)cc1`, on Sortase A [1], inhibition was half-maximal at 1.8 µM (IC50). Moreover, the MIC with Staphylococcus aureus is greater than 128 µg/mL.
At Sortase A [1], `O=C1NC(=O)C(=C/C=C/c2ccc(OCc3ccc(OCc4ccccc4)cc3)cc2)C(=O)N1` registered an IC50 greater than 50 µM. Moreover, in the assay on Staphylococcus aureus, the MIC is greater than 128 µg/mL.
For the molecule `COc1ccc(/C=C/C=C2C(=O)c3ccccc3C2=O)cc1`, at Sortase A [1], the IC50 is greater than 50 µM. Further, the MIC in the assay with Staphylococcus aureus is greater than 128 µg/mL.
On Sortase A [1], `O=C1NC(=O)C(=Cc2ccc(-c3ccc(Br)cc3)o2)C(=O)N1` had an IC50 greater than 50 µM. Also, in the assay with Staphylococcus aureus, the MIC turned out to be 64 µg/mL (≈ 177 µM).
`Cc1ccc(/C=C/C=C2C(=O)NC(=O)NC2=O)cc1` came in with an IC50 against Sortase A [1] of 1 µM. In addition, the MIC with Staphylococcus aureus came out at 128 µg/mL (≈ 499 µM).
Molecule `O=C(CNC(=O)OCc1ccccc1)NCC(=O)Oc1ccc(/C=C/C=C2C(=O)NC(=O)NC2=O)cc1` yielded an IC50 on Sortase A [1] of 1.7 µM. In addition, in the assay with Staphylococcus aureus, the MIC was determined as 32 µg/mL (≈ 63.2 µM).
At Sortase A [1], `COC(=O)COc1ccc(/C=C/C=C2C(=O)NC(=O)NC2=O)cc1` gave an IC50 of 1 µM. For the same molecule, in the assay with Staphylococcus aureus, the MIC was greater than 128 µg/mL.
Regarding `O=C1NC(=O)C(=C/C=C/c2ccc(OCc3ccc(Cl)cc3)cc2)C(=O)N1`, 2.5 µM corresponded to half-maximal inhibition on Sortase A [1] (IC50). In addition, the MIC in the assay with Staphylococcus aureus is greater than 128 µg/mL.
`CCCCc1ccc(COc2ccc(/C=C/C=C3C(=O)NC(=O)NC3=O)cc2)cc1` registered an IC50 on Sortase A [1] greater than 50 µM. Further, in the assay on Staphylococcus aureus, the MIC was greater than 128 µg/mL.
In turn, `COc1ccc(COc2ccc(/C=C/C=C3C(=O)NC(=O)NC3=O)cc2)cc1` returned an IC50 against Sortase A [1] of 1.6 µM. Moreover, the MIC in the assay on Staphylococcus aureus was greater than 128 µg/mL.
Taken in the same sequence, the figures for `COc1ccc(/C=C/C=C2C(=O)N(C)C(=S)N(C)C2=O)cc1` were greater than 50 µM and greater than 128 µg/mL.
In the case of `O=C1NC(=O)C(=C/C=C/c2ccc(OCc3ccccc3)cc2)C(=O)N1`, the IC50 on Sortase A [1] is 0.5 µM; against Sortase A [2], 8.9 µM. Moreover, the MIC in the assay with Staphylococcus aureus was greater than 128 µg/mL.
Taken in the same sequence, the figures for `CCCOc1ccc(/C=C/C=C2C(=O)NC(=O)NC2=O)cc1` were 0.7 µM, 8.1 µM and greater than 128 µg/mL.
The molecule `CC(C)c1ccc(/C=C/C=C2C(=O)NC(=O)NC2=O)cc1` showed an IC50 against Sortase A [1] of 1.8 µM. In addition, the minimal inhibitory concentration (MIC) with Staphylococcus aureus turned out to be 32 µg/mL (≈ 113 µM).
